Broadly, the NOAEL is the highest dose or exposure tested at which no adverse effect was seen.

Molecules are shown by their SMILES. Converted amounts (≈) assume the structure as drawn.

This is an account of results in EPA's ToxValDB 9.5 (doi:10.2903/j.efsa.2010.1856).

In one data set the test system is Coturnix japonica. As to conditions: acute, oral, mortality.
The subject of another data set is Canidae. Conditions: chronic, duration: 1 years, oral, Dog Other.
The subject of a further data set is Oncorhynchus mykiss. As to conditions: mortality.
A further data set has as its system Phasianus sp. As to conditions: acute; oral; unspecified; mortality.
The test system of another data set is Rattus norvegicus. As to conditions: chronic; duration: 2 years; histopathology: nonneoplastic.
The test system of the next data set is Apis mellifera. As to conditions: acute; duration: 48 hours; oral; unspecified; mortality.
The next data set relates to Colinus virginianus. Conditions: reproduction developmental.
A further data set has as its system Daphnia magna. Conditions: chronic/long-term; duration: 21 days; reproduction.
A further data set concerns Anatidae. As to conditions: short-term; oral; feed; mortality.
A further data set concerns Aphidius rhopalosiphi. As to the kind of experiment: LR50; higher = less toxic. Conditions: not reported; mortality.
For another data set, the system named is Typhlodromus pyri. Briefly: LR50; higher = less toxic. As to conditions: not reported; mortality.

On to `CC1OC(C)OC(C)OC(C)O1` (stereo not drawn) [2,4,6,8-Tetramethyl-1,3,5,7-tetroxocane], for which the LC50 with Tagia sp. (acute, duration: 14 days, mortality) is over 1000 mg/kg; with Coturnix japonica (diet), 3460 mg/kg; in the data set on Oncorhynchus mykiss (acute, duration: 96 hours) it was 75 µg/mL (≈ 426 µM); in the data set with Anatidae, 3450 mg/kg. In addition, the NOEC in the data set on Tagia sp. (chronic/long-term, reproduction) turned out to be 32 mg/kg; with Oncorhynchus mykiss (chronic/long-term, duration: 21 days), 37.5 mg/L; in the data set on Colinus virginianus it was 500 mg/kg-day; in the data set with Anas platyrhynchos (reproductive) it was 175 mg/kg; in the data set with Daphnia magna it was 90 mg/L. Also, the LD50 was 170 mg/kg-day in the data set with Coturnix japonica; 262 mg/kg-day in the data set with Phasianus sp.; over 87.5 µg/piece in the data set on Apis mellifera; 196 mg/kg-day in the data set on Anas platyrhynchos (acute, oral, unspecified, mortality). For the same compound, the NOAEL came to 10 mg/kg-day in the data set on Canidae (mortality), 30 mg/kg-day with Canidae (neurology) and 2 mg/kg-day in the data set on Rattus norvegicus. Besides, the LR50 in the data set with Aphidius rhopalosiphi and in the data set on Typhlodromus pyri was over 350 g/ha in each case.
